According to publication PMC11897524 (Frontiers in Pharmacology, 2025):

Key:
EPHB4 = EPHB4 (Homo sapiens, UniProt P54760); assay: SelectScreen Z′-LYTE kinase assay; assay type: biochemical
Method: (§1) The kinase selectivity profile of BST-4 was performed by the SelectScreen kinase profiling service (Thermo Fisher Scientific). Kinase selectivity assay was performed using Z′-LYTE ™ screening protocol kit. Briefly, the test compounds were screened in 1% DMSO (final). For 10-point titrations, perform a 3-fold dilution starting at a starting concentration of 50 µM. Then 2.5 µL 4× test compound, 2.4 µL kinase buffer, 5 µL 2× kinase mixture and 2.5 µL 4× ATP solution was added in black 384-well plate. After shaking for 30 s, the plates were incubated for 60 min at room temperature. Add developing reagent solution and shake the plate for 30 s, then incubate for 1 h at room temperature. The Fluorescence intensity per well was read using a fluorescence plate reader. SelectScreen® Kinase Profiling Service used XLfit from IDBS. The dose response curve was curve fit to model number 205 (sigmoidal dose-response model) and inhibition rates were calculated. 50% inhibition was used as a activity threshold. IC50 values were calculated based on curve fitting.

FGFR3 = FGFR3 (Homo sapiens, UniProt P22607); assay: SelectScreen Z′-LYTE kinase assay; assay type: biochemical
Method: as §1

ALK = ALK (Homo sapiens, UniProt Q9UM73); assay: SelectScreen Z′-LYTE kinase assay; assay type: biochemical
ALK, sequence (Q9UM73 19-1620): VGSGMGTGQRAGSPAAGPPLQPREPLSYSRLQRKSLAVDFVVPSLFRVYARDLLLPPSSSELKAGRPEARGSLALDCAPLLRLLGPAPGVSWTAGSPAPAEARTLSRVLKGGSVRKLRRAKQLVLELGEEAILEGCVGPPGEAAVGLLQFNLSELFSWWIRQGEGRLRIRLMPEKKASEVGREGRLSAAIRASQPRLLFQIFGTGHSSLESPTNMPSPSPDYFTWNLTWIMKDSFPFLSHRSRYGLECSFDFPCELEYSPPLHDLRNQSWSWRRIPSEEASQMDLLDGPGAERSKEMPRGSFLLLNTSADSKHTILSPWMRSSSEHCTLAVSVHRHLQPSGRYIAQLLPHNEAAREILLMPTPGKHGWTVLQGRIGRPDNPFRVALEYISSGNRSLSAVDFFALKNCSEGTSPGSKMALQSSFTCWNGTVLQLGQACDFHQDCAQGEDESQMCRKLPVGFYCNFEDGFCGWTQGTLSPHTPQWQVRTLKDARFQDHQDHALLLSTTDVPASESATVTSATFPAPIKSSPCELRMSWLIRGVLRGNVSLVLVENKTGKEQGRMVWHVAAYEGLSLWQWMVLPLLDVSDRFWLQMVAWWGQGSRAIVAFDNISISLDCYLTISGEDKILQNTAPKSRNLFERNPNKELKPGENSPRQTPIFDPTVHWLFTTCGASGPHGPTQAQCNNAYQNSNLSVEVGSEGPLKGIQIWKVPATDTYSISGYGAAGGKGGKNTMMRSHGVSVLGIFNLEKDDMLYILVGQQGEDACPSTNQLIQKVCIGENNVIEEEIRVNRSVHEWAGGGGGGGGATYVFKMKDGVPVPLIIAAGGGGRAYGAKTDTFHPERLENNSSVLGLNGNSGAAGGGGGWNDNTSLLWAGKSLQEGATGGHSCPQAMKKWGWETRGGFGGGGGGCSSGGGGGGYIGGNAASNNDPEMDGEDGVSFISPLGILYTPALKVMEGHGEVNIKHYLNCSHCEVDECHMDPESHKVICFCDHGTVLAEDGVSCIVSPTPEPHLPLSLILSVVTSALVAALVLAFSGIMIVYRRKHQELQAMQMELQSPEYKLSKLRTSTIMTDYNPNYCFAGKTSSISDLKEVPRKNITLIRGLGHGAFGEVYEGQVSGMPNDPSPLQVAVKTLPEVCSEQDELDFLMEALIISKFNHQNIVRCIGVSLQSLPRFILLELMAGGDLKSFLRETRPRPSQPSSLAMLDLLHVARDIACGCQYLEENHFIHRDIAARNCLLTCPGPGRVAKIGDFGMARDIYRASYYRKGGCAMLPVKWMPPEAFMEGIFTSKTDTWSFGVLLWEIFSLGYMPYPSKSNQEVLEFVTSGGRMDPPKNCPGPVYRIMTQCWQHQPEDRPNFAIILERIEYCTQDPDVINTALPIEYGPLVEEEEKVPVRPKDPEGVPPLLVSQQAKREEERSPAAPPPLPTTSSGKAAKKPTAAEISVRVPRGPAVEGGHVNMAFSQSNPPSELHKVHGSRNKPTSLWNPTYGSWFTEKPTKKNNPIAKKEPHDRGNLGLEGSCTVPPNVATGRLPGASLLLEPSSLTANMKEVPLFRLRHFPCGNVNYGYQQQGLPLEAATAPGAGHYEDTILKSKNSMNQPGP
Method: as §1

SRC = SRC (Homo sapiens, UniProt P12931); assay: SelectScreen Z′-LYTE kinase assay; assay type: biochemical
SRC, sequence (P12931 whole entry): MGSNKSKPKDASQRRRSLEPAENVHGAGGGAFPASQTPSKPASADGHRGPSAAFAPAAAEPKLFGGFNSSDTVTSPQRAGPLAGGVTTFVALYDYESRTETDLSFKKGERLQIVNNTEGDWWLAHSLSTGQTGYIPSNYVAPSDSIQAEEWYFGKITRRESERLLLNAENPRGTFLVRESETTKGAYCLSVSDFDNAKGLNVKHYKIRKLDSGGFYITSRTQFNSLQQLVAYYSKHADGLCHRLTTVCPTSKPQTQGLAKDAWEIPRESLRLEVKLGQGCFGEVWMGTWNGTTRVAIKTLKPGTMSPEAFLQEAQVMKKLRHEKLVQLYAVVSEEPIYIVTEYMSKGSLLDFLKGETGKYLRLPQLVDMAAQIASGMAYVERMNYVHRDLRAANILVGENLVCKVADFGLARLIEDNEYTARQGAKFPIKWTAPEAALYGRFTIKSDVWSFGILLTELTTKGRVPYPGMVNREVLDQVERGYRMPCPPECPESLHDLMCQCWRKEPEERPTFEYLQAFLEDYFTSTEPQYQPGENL
Method: as §1

LCK = LCK (Homo sapiens, UniProt P06239); assay: SelectScreen Z′-LYTE kinase assay; assay type: biochemical
Method: as §1

CSF1R = CSF1R (Homo sapiens, UniProt P07333); assay: SelectScreen Z′-LYTE kinase assay; assay type: biochemical
Method: as §1

MET = MET (Homo sapiens, UniProt P08581); assay: SelectScreen Z′-LYTE kinase assay; assay type: biochemical
Method: as §1

KIT = KIT (Homo sapiens, UniProt P10721); assay: SelectScreen Z′-LYTE kinase assay; assay type: biochemical
KIT, sequence (P10721 26-976): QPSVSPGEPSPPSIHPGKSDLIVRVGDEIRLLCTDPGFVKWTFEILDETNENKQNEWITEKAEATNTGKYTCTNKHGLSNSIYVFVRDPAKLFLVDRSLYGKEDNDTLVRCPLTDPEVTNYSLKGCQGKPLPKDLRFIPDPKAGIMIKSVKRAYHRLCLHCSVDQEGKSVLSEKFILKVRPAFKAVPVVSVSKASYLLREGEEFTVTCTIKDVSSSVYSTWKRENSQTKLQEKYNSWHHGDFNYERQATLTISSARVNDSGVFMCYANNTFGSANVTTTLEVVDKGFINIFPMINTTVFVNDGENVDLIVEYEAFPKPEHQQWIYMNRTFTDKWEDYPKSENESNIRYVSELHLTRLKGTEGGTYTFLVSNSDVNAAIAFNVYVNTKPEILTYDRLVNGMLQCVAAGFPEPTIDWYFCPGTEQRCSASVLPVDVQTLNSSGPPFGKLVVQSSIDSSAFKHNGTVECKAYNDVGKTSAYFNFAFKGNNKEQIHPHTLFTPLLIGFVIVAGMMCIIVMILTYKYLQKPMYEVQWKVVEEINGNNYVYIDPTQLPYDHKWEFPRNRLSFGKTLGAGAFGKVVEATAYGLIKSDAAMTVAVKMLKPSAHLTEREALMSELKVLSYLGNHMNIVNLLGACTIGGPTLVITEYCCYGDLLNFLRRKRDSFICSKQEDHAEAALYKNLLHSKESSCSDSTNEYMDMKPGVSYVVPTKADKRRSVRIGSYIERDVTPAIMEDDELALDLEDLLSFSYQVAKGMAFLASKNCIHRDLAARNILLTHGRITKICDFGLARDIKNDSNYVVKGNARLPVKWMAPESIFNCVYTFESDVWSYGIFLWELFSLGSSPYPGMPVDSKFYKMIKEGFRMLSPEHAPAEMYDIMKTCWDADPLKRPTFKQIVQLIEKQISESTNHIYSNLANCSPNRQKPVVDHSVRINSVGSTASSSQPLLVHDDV
Method: as §1

RET = RET (Homo sapiens, UniProt P07949); assay: SelectScreen Z′-LYTE kinase assay; assay type: biochemical
Method: as §1

MST1R = MST1R (Homo sapiens, UniProt Q04912); assay: SelectScreen Z′-LYTE kinase assay; assay type: biochemical
Method: as §1

AXL = AXL (Homo sapiens, UniProt P30530); assay: SelectScreen Z′-LYTE kinase assay; assay type: biochemical
AXL, sequence (P30530 26-894): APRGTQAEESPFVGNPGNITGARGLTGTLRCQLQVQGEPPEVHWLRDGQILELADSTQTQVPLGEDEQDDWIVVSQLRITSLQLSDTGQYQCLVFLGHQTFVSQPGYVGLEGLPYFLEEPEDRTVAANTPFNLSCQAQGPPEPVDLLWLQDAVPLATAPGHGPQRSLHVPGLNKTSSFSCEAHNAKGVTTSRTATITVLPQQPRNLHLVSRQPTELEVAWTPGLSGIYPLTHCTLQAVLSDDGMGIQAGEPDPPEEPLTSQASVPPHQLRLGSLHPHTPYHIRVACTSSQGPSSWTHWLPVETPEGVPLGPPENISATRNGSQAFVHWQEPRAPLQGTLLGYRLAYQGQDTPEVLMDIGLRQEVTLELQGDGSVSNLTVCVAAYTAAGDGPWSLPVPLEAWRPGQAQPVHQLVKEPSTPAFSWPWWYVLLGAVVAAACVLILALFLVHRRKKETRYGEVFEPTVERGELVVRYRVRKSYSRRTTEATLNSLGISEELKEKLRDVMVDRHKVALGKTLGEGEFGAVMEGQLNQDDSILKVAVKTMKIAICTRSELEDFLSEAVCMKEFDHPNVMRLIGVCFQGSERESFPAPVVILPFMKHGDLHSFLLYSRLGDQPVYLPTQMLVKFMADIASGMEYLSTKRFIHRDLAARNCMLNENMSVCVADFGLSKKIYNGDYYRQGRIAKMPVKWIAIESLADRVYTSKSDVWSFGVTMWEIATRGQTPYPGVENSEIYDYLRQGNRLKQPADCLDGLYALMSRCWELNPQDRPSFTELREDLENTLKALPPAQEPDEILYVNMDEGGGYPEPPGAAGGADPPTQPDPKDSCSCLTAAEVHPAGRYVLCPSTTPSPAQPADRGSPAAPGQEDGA
Method: as §1

BRDT = BRDT (Homo sapiens, UniProt Q58F21); assay: Inhibitory effect on BET and STAT family members; assay type: binding
Excerpt: (§2) TABLE 4 The inhibitory effect of BST-4 on other members of the BET and STAT families. | column: IC50 (μM)

BRD2 = BRD2 (Homo sapiens, UniProt P25440); assay: Inhibitory effect on BET and STAT family members; assay type: binding
Excerpt: as §2

STAT4 = STAT4 (Homo sapiens, UniProt Q14765); assay: Inhibitory effect on BET and STAT family members; assay type: binding
Excerpt: as §2

BRD3 = BRD3 (Homo sapiens, UniProt Q15059); assay: Inhibitory effect on BET and STAT family members; assay type: binding
Excerpt: as §2

STAT5a = STAT5a (Homo sapiens, UniProt P42229); assay: Inhibitory effect on BET and STAT family members; assay type: binding
Excerpt: as §2

STAT1 = STAT1 (Homo sapiens, UniProt P42224); assay: Inhibitory effect on BET and STAT family members; assay type: binding
Excerpt: as §2

STAT5b = STAT5b (Homo sapiens, UniProt P51692); assay: Inhibitory effect on BET and STAT family members; assay type: binding
Excerpt: as §2

STAT2 = STAT2 (Homo sapiens, UniProt P52630); assay: Inhibitory effect on BET and STAT family members; assay type: binding
Excerpt: as §2

STAT6 = STAT6 (Homo sapiens, UniProt P42226); assay: Inhibitory effect on BET and STAT family members; assay type: binding
Excerpt: as §2

shControl-CAKI-2 cells = assay: MTT assay on shRNA-transfected CAKI-2 cells; assay type: cell-based; conditions: Homo sapiens, CAKI-2 stably expressing Control shRNA, 48 h, read-out: IC50 (μM) ± SD shControl-CAKI-2
Method: (§3) The effect of hit compounds on cytotoxicity was determined as previously reported ([Ding et al., 2020]). In brief, cells treated with the tested compounds were added with MTT reagent to form formazan crystals, and then the optical density (OD) values at 570 nm were determined after the crystals were dissolved in DMSO. […] Next, the values of IC50 of the selected compounds against more RCC cell lines were determined. The 5 × 10^3 cells in 100 μL culture medium were injected into each well of a 96-well plate and cultured overnight. Add different concentrations of compounds and incubate for 48 h. Then 100 μL of MTT (0.5 mg/mL) solution was added to the 96-well plate and maintained at 37°C for 4 h. Finally, 200 μL of DMSO was added and shaken for 10 min. The OD values at 570 nm were determined by a Synergy 4 microplate reader.
(§4) ^aIC50 (μM) is the concentration of compound needed to reduce cell growth by 50% following 48 h cell treatment with BST-4. shControl-CAKI-2: CAKI-2 cells stably expressing Control shRNA; shBRD4-CAKI-2 cells: CAKI-2 cells stably expressing BRD4 shRNA; shSTAT3-CAKI-2 cells: CAKI-2 cells stably expressing STAT3 shRNA; shBRD4/STAT3-CAKI-2 cells: CAKI-2 cells stably expressing BRD4/STAT3 shRNA. Each experiment was performed at least three times. Data are presented as the mean ± SD.

[1] = system: shBRD4/STAT3-CAKI-2 cells; assay: MTT assay on shRNA-transfected CAKI-2 cells; assay type: cell-based; conditions: Homo sapiens, CAKI-2 stably expressing BRD4/STAT3 shRNA, 48 h, read-out: IC50 (μM) ± SD shBRD4/STAT3-CAKI-2
Method: as §3, §4

shSTAT3-CAKI-2 cells = assay: MTT assay on shRNA-transfected CAKI-2 cells; assay type: cell-based; conditions: Homo sapiens, CAKI-2 stably expressing STAT3 shRNA, 48 h, read-out: IC50 (μM) ± SD shSTAT3-CAKI-2
Method: as §3, §4

shBRD4-CAKI-2 cells = assay: MTT assay on shRNA-transfected CAKI-2 cells; assay type: cell-based; conditions: Homo sapiens, CAKI-2 stably expressing BRD4 shRNA, 48 h, read-out: IC50 (μM) ± SD shBRD4-CAKI-2
Method: as §3, §4

EPHB4, sequence (P54760 16-987): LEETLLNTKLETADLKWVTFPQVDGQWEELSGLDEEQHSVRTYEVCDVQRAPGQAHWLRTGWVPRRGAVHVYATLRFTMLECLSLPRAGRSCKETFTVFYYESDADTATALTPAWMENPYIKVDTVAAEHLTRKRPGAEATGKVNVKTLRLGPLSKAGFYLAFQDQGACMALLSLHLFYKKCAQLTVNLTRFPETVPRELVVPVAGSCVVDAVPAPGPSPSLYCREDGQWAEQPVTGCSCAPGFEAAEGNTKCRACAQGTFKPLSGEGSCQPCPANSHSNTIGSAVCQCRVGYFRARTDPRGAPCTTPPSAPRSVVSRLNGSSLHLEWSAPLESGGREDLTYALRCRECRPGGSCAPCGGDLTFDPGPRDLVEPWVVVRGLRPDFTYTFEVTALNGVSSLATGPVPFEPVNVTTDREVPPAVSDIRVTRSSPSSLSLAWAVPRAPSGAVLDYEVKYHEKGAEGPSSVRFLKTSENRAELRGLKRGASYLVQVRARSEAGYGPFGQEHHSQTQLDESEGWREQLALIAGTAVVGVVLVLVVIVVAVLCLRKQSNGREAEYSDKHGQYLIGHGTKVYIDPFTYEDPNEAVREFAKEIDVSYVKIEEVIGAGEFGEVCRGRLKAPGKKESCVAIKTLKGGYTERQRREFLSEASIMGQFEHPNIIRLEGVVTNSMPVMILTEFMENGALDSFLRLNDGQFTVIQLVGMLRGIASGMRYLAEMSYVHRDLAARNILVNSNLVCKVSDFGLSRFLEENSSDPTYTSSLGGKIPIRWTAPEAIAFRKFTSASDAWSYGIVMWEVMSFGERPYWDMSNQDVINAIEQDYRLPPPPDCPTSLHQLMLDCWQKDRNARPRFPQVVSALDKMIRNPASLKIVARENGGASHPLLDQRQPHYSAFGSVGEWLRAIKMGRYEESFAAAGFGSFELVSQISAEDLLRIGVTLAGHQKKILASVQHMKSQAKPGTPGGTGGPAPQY

CCS(=O)(=O)Cc1cnc(Oc2c(F)cc(F)cc2OCCCCOc2ccc(/C=C/c3cc(OC)cc(OC)c3)cc2)c(-c2cc(C)c3c(=O)[nH]ccn23)c1 [BST-4] was tested. Which IC50 (EPHB4) did it give?
The IC50 was > 10 µM.

What about the inhibition at 1 µM (EPHB4) of the same molecule?
Its inhibition at 1 µM is 0.97%.

What about the IC50 (FGFR3) of the same molecule?
The IC50 was > 10 µM.

And the inhibition at 1 µM (FGFR3)?
The inhibition at 1 µM was 2.84%.

What about the IC50 (ALK) of the same molecule?
Its IC50 is > 10 µM.

What about the inhibition at 1 µM (ALK) of the same molecule?
Its inhibition at 1 µM is 0.72%.

And the IC50 (SRC)?
The IC50 was > 10 µM.

And the inhibition at 1 µM (SRC)?
Its inhibition at 1 µM is 3.24%.

And the IC50 (LCK)?
The IC50 was > 10 µM.

What about the inhibition at 1 µM (LCK) of the same molecule?
Its inhibition at 1 µM is 0.77%.

What about the IC50 (CSF1R) of the same molecule?
Its IC50 is > 10 µM.

And the inhibition at 1 µM (CSF1R)?
Its inhibition at 1 µM is 2.02%.

And the IC50 (MET)?
Its IC50 is > 10 µM.

And the inhibition at 1 µM (MET)?
The inhibition at 1 µM was 0.68%.

What about the IC50 (KIT) of the same molecule?
The IC50 was > 10 µM.

What about the inhibition at 1 µM (KIT) of the same molecule?
The inhibition at 1 µM was 0.25%.

What about the IC50 (RET) of the same molecule?
The IC50 was > 10 µM.

And the inhibition at 1 µM (RET)?
Its inhibition at 1 µM is 0.41%.

What about the IC50 (MST1R) of the same molecule?
Its IC50 is > 10 µM.

And the inhibition at 1 µM (MST1R)?
Its inhibition at 1 µM is 5.02%.

And the IC50 (AXL)?
The IC50 was > 10 µM.

And the inhibition at 1 µM (AXL)?
Its inhibition at 1 µM is 1.83%.

And the IC50 (BRDT)?
The IC50 was > 10 µM.

And the IC50 (BRD2)?
The IC50 was > 10 µM.

And the IC50 (STAT4)?
Its IC50 is > 10 µM.

And the IC50 (BRD3)?
Its IC50 is > 10 µM.

What about the IC50 (STAT5a) of the same molecule?
The IC50 was > 10 µM.

And the IC50 (STAT1)?
The IC50 was > 10 µM.

What about the IC50 (STAT5b) of the same molecule?
Its IC50 is > 10 µM.

And the IC50 (STAT2)?
Its IC50 is > 10 µM.

What about the IC50 (STAT6) of the same molecule?
Its IC50 is > 10 µM.

What about the IC50 (shControl-CAKI-2 cells) of the same molecule?
Its IC50 is 0.76 ± 0.05 µM.

And the IC50 [1]?
The IC50 was > 10 µM.

And the IC50 (shSTAT3-CAKI-2 cells)?
Its IC50 is 3.48 ± 0.21 µM.

What about the IC50 (shBRD4-CAKI-2 cells) of the same molecule?
Its IC50 is 5.09 ± 0.27 µM.
